Measured values from patent US20210214375A1 (LUNDBECK LA JOLLA RESEARCH CENTER, INC., priority 2017, published 2021).

Key:
Type in all cases: biochemical
ABHD6 = biological target: T1, ABHD6 (Mus musculus, UniProt Q8R2Y0); assay: In vitro competitive activity-based protein profiling, mouse brain proteome, ABHD6; conditions: for IC50: mouse
T1 construct: Brain; from tissue; host or cells: mouse brain proteome
T1 sequence (Q8R2Y0 1-336): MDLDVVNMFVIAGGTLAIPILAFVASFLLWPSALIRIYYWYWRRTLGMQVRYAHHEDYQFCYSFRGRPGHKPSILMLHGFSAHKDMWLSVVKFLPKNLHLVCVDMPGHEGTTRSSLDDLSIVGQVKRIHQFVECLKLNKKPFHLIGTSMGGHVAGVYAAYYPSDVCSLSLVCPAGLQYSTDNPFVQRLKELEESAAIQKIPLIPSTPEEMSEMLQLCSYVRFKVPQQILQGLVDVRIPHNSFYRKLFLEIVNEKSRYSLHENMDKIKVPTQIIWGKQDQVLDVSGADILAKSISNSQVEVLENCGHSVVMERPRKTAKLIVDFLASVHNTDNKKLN
Method: [Worded in the source for another target; this target is reported under the same test.] (§1) Proteomes (human prefrontal cortex or cell membrane fractions) (50 μL, 1.0 mg/mL total protein concentration) were preincubated with varying concentrations of inhibitors at 37° C. After 30 min, FP—Rh or HT-01 (1.0 μL, 50 μM in DMSO) was added and the mixture was incubated for another 30 min at room temperature. Reactions were quenched with SDS loading buffer (15 μL-4×) and run on SDS-PAGE.

MGLL = biological target: T2, MGLL (Mus musculus, UniProt O35678); assay: In vitro competitive activity-based protein profiling, mouse brain proteome
T2 construct: Brain; from tissue; host or cells: mouse brain proteome
T2 sequence (O35678 1-303): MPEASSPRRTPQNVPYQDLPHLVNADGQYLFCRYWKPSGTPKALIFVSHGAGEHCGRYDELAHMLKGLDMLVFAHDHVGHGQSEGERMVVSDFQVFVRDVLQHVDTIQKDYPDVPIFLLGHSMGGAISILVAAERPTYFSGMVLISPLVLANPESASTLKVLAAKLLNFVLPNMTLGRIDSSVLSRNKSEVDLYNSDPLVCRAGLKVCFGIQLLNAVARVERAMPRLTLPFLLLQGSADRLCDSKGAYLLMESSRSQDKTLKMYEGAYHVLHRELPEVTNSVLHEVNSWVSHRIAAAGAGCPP
Method: [Worded in the source for another species; this species is reported under the same test.] as §1

MAGL = biological target: T3, MAGL (Homo sapiens, UniProt Q99685); assay: In vitro competitive activity-based protein profiling (gel-based, FP-Rh or HT-01 probe); conditions: for IC50: read-out: IC50 MGLL PC3 (Human); for % Inh MGLL PFC (Human, μM): PFC (prefrontal cortex) proteome
T3 construct: Proteomes (human prefrontal cortex or cell membrane fractions); from tissue
T3 sequence (Q99685 1-303): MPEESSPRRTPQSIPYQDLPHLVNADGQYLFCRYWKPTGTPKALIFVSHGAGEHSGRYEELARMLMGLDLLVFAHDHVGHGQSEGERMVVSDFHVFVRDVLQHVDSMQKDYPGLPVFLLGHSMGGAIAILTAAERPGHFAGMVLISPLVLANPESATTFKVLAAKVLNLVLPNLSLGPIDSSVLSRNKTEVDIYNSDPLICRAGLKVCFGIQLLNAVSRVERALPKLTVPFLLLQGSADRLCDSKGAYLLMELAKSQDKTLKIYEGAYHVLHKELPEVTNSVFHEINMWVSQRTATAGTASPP
Method: Compounds are tested to assess their MAGL and serine hydrolase activity using the following in vitro and in vivo assays.
as §1

IC50 (ABHD6) [nM]	IC50 (MGLL) [nM]	IC50 (MAGL; PC3 proteome) [nM]	Structure (SMILES)	also measured
100 to 1000	< 100	–	O=C(OC(C(F)(F)F)C(F)(F)F)N1CCC2(CC1)CN(Cc1ccc(Cl)cc1N1CCCC1)C2 [Example 34]	–
> 1000	< 100	–	CC(=O)N1CC2CN(c3cc(C(F)(F)F)ccc3CN3CCN(C(=O)OC(C(F)(F)F)C(F)(F)F)CC3)CC2C1 (centres unmarked) [Example 200, 1,1,1,3,3,3-Hexafluoropropan-2-yl 4-(2-(5-acetylhexahydropyrrolo[3,4-c]pyrrol-2(1H)-yl)-4-(trifluoromethyl)benzyl)piperazine-1-carboxylate]	–
> 1000	< 100	–	O=C(OC(C(F)(F)F)C(F)(F)F)N1CCC2(CC1)CN(Cc1ccc(N3CCCC3)cc1)C2 [Example 80, 1,1,1,3,3,3-Hexafluoropropan-2-yl 2-(4-(pyrrolidin-1-yl)benzyl)-2,7-diazaspiro[3.5]nonane-7-carboxylate]	–
> 1000	100 to 1000	–	CC(=O)N1CCCC12CCN(c1cc(C(F)(F)F)ccc1CN1CCN(C(=O)OC(C(F)(F)F)C(F)(F)F)CC1)CC2 [Example 208, 1,1,1,3,3,3-Hexafluoropropan-2-yl 4-(2-(1-acetyl-1,8-diazaspiro[4.5]decan-8-yl)-4-(trifluoromethyl)benzyl)piperazine-1-carboxylate]	–
> 1000	100 to 1000	–	CN1CCCC12CCN(c1cc(C(F)(F)F)ccc1CN1CCN(C(=O)OC(C(F)(F)F)C(F)(F)F)CC1)CC2 [Example 215, 1,1,1,3,3,3-Hexafluoropropan-2-yl 4-(2-(1-methyl-1,8-diazaspiro[4.5]decan-8-yl)-4-(trifluoromethyl)benzyl)piperazine-1-carboxylate]	–
> 1000	100 to 1000	–	CC(=O)N1CC2(CCN(c3ccccc3CN3CCC34CCN(C(=O)OC(C(F)(F)F)C(F)(F)F)CC4)C2)C1 [Example 228, 1,1,1,3,3,3-Hexafluoropropan-2-yl 1-(2-(2-acetyl-2,6-diazaspiro[3.4]octan-6-yl)benzyl)-1,7-diazaspiro[3.5]nonane-7-carboxylate]	–
> 1000	100 to 1000	–	CS(=O)(=O)N1CC2CN(c3cc(Cl)ccc3CN3CCN(C(=O)OC(C(F)(F)F)C(F)(F)F)CC3)CC2C1 (centres unmarked) [Example 203, 1,1,1,3,3,3-Hexafluoropropan-2-yl 4-(4-chloro-2-(5-(methylsulfonyl)hexahydropyrrolo[3,4-c]pyrrol-2(1H)-yl)benzyl)piperazine-1-carboxylate]	–
100 to 1000	< 100	–	O=C(OC(C(F)(F)F)C(F)(F)F)N1CCC2(CCCN2C(=O)c2ccc(C(F)(F)F)cc2)CC1 [Example 83, 1,1,1,3,3,3-Hexafluoropropan-2-yl 1-(4-(trifluoromethyl)benzoyl)-1,8-diazaspiro[4.5]decane-8-carboxylate]	–
–	–	–	O=C(O)C1CCN(c2ccc(CN3CCC4(CC3)CN(C(=O)OC(C(F)(F)F)C(F)(F)F)C4)cc2)CC1 [Example 66, 1-(4-((2-(((1,1,1,3,3,3-Hexafluoropropan-2-yl)oxy)carbonyl)-2,7-diazaspiro[3.5]nonan-7-yl)methyl)phenyl) piperidine-4-carboxylic acid]	% Inh ABHD6 Brain (Mouse, μM) (ABHD6; mouse brain proteome): ### (### is ≥ 75%); % Inh MGLL Brain (Mouse, μM) (MGLL): ## (## is between 25 and 75%)
–	–	< 100	O=C(OC(C(F)(F)F)C(F)(F)F)N1CCC2(CC1)CCN(C(=O)c1cc(Cl)cc(C(F)(F)F)c1)C2 [Example 110, 1,1,1,3,3,3-Hexafluoropropan-2-yl 2-(3-chloro-5-(trifluoromethyl)benzoyl)-2,8-diazaspiro[4.5]decane-8-carboxylate]	–
–	–	< 100	CC1(C(=O)O)CCN(c2cc(CN3CC4(CCN(C(=O)OC(C(F)(F)F)C(F)(F)F)CC4)C3)cc(C(F)(F)F)c2)C1 (centres unmarked) [Example 121, 1-(3-((7-(((1,1,1,3,3,3-Hexafluoropropan-2-yl)oxy)carbonyl)-2,7-diazaspiro[3.5]nonan-2-yl)methyl)-5-(trifluoromethyl)phenyl)-3-methylpyrrolidine-3-carboxylic acid]	–
–	–	< 100	N#Cc1ccc(C(=O)N2CCC3(CCN(C(=O)OC(C(F)(F)F)C(F)(F)F)CC3)C2)cc1C(F)(F)F [Example 12, 1,1,1,3,3,3-Hexafluoropropan-2-yl 2-(4-cyano-3-(trifluoromethyl)benzoyl)-2,8-diazaspiro[4.5]decane-8-carboxylate]	–
–	–	100 to 1000	O=C(O)c1ccc(CN2CC3(CCN(C(=O)OC(C(F)(F)F)C(F)(F)F)CC3)C2)cc1C(F)(F)F [Example 131, 4-((7-(((1,1,1,3,3,3-Hexafluoropropan-2-yl)oxy)carbonyl)-2,7-diazaspiro[3.5]nonan-2-yl)methyl)-2-(trifluoromethyl) benzoic acid]	–
–	–	< 100	O=C(O)c1cc(CN2CC3(CCN(C(=O)OC(C(F)(F)F)C(F)(F)F)CC3)C2)ccc1C(F)(F)F [Example 21, 5-((7-(((1,1,1,3,3,3-Hexafluoropropan-2-yl)oxy)carbonyl)-2,7-diazaspiro[3.5]nonan-2-yl)methyl)-2-(trifluoromethyl)benzoic acid]	–
–	–	100 to 1000	CC(C)(C#Cc1ccccc1CN1CCCC12CCN(C(=O)OC(C(F)(F)F)C(F)(F)F)CC2)C(=O)O [Example 145, 4-{2-[(8-{[(1,1,1,3,3,3-Hexafluoropropan-2-yl)oxy]carbonyl}-1,8-diazaspiro[4.5]decan-1-yl)methyl]phenyl]-2,2-dimethylbut-3-ynoic acid]	% Inh MGLL PFC (Human, μM) (MAGL): ### (### is ≥ 75%)
–	–	< 100	CN(Cc1ccc(C(F)(F)F)cc1OCC(=O)O)C1(C)CCN(C(=O)OC(C(F)(F)F)C(F)(F)F)CC1 [Example 136, 2-(2-(((1-(((1,1,1,3,3,3-Hexafluoropropan-2-yl)oxy)carbonyl)-4-methylpiperidin-4-yl)(methyl)amino)methyl)-5-(trifluoromethyl)phenoxy)acetic acid]	% Inh MGLL PFC (Human, μM) (MAGL): ### (### is ≥ 75%)
–	–	< 100	CC1(C(=O)O)CCN(c2cc(C(F)(F)F)ccc2CN2CC3(CCN(C(=O)OC(C(F)(F)F)C(F)(F)F)CC3)C2)C1 (centres unmarked) [Example 115, 1-(2-((7-(((1,1,1,3,3,3-Hexafluoropropan-2-yl)oxy)carbonyl)-2,7-diazaspiro[3.5]nonan-2-yl)methyl)-5-(trifluoromethyl)phenyl)-3-methylpyrrolidine-3-carboxylic acid]	–
–	–	–	CN(Cc1ccc(C(F)(F)F)cc1N1CCC(N2CCC[C@H]2C(=O)O)CC1)C1(C)CCN(C(=O)OC(C(F)(F)F)C(F)(F)F)CC1 [Example 163, (1-(2-(((1-(((1,1,1,3,3,3-Hexafluoropropan-2-yl)oxy)carbonyl)-4-methylpiperidin-4-yl)(methyl)amino)methyl)-5-(trifluoromethyl)phenyl)piperidin-4-yl)-L-proline]	% Inh MGLL PC3 (Human, μM) (MAGL; PC3 proteome): ### (### is ≥ 75%); % Inh MGLL Brain (Mouse, μM) (MGLL): ### (### is ≥ 75%)
–	–	< 100	CC1(OCc2ccc(Cl)cc2C2(C(=O)O)CCCC2)CCN(C(=O)OC(C(F)(F)F)C(F)(F)F)CC1 [Example 146, 1-(5-Chloro-2-{[(1-{[(1,1,1,3,3,3-hexafluoropropan-2-yl)oxy]carbonyl}-4-methylpiperidin-4-yl)oxy]methyl}phenyl) cyclopentane-1-carboxylic acid]	% Inh MGLL PFC (Human, μM) (MAGL): ### (### is ≥ 75%)
–	–	< 100	O=C(O)C1CCN(c2cc(C(F)(F)F)ccc2CN2CC3(CCN(C(=O)OC(C(F)(F)F)C(F)(F)F)CC3)C2)C1 (centres unmarked) [Example 101, 1-(2-((7-(((1,1,1,3,3,3-Hexafluoropropan-2-yl)oxy)carbonyl)-2,7-diazaspiro[3.5]nonan-2-yl)methyl)-5-(trifluoromethyl)phenyl)pyrrolidine-3-carboxylic acid]	–
–	–	< 100	O=C(O)C1CCN(c2cc(CN3CCC4(CC3)CCN(C(=O)OC(C(F)(F)F)C(F)(F)F)C4)ccc2C(F)(F)F)CC1 [Example 221]	–
–	–	< 100	O=C(O)C1CCN(c2cc(C(F)(F)F)ccc2CN2CC3(CCN(C(=O)OC(C(F)(F)F)C(F)(F)F)CC3)C2)CC1 [Example 102, 1-(2-((7-(((1,1,1,3,3,3-Hexafluoropropan-2-yl)oxy)carbonyl)-2,7-diazaspiro[3.5]nonan-2-yl)methyl)-5-(trifluoromethyl)phenyl)piperidine-4-carboxylic acid]	–
